Target: T1, HA-D190A CaSR mutant (Rattus norvegicus, UniProt P48442, D190A)
T1 construct: mGluR5 signal peptide (N); expressed in transfected cells; host or cells: HEK293T
T1 sequence (P48442 20-1079 D190A): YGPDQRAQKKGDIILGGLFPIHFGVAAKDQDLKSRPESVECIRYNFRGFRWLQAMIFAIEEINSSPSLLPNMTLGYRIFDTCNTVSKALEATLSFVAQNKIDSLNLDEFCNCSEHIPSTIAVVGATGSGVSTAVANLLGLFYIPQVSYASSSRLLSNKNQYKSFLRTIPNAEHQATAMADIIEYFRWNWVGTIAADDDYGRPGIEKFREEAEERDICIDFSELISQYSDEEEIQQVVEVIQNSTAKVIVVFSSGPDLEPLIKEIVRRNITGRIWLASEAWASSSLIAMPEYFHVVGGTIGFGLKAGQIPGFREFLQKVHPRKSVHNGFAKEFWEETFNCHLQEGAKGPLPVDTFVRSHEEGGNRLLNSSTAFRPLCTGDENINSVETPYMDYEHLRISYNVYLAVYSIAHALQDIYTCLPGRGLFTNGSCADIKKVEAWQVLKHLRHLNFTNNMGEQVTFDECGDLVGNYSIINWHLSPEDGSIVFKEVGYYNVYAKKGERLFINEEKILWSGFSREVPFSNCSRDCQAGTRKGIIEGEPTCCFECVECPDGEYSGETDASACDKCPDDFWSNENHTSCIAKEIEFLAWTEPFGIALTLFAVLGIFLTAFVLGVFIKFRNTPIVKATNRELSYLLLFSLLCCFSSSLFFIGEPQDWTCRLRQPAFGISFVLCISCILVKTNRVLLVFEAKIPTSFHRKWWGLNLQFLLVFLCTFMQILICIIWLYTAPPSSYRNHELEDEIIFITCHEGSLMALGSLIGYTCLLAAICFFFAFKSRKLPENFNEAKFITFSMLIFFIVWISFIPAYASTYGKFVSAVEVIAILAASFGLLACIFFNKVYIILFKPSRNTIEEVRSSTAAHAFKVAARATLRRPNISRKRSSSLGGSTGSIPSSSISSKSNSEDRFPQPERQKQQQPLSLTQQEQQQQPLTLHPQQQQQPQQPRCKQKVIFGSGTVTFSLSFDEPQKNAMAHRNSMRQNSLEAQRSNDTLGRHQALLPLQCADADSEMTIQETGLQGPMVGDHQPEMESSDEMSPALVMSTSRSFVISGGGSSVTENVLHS
Assay: IP-One assay, HEK293T transiently transfected
Format: cell-based

- EC50 (Ca^2+ alone): 17.8 mM
- Hill coefficient ± S.E.M. (Ca^2+ alone): 3.77 ± 0.39
- pEC50 ± S.E.M. (Ca^2+ alone): 1.75 ± 0.01
- Max ± S.E.M. (normalized to maximum response of WT CaSR): 110 ± 11%
Compound: [Ca+2] [Ca^2+]
